ChEMBL document CHEMBL4017483, “Potent and selective oxytocin receptor agonists without disulfide bridges” (Bioorg Med Chem Lett, 2017)
Numbered stars: 1 amine (or outer) side, 2 acyl side, 3 side chain; on linkers, the order of the positions; unused ones are H or OH. Bridge positions count the residues as written; N and C are the ends. Square brackets hold non-standard residues; d marks the D form. Peptide text beside a SMILES is read from it. Hyp = O=C(O)[C@@H]1C[C@@H](O)CN1; Suc = O=C(CCC(=O)[*:2])[*:1]; X1 = O=C(CCC[*:2])[*:1]; Dap = NC[C@H](N)C(=O)O; Mpa = O=C(O)CCS

What was measured:
Vasopressin V1a receptor = Vasopressin V1a receptor (Homo sapiens, UniProt P37288); experiment: Agonist activity at human V1a receptor expressed in CHO cells assessed as calcium mobilization measured after 30 mins by Fluo-4-AM dye based FLIPR assay; format: cell-based
Oxytocin receptor = target: T1, Oxytocin receptor (Homo sapiens, UniProt P30559); experiment: Agonist activity at human OTR expressed in CHO cells assessed as calcium mobilization measured after 30 mins by Fluo-4-AM dye based FLIPR assay; format: functional, cell-based
T1 sequence (P30559 whole entry): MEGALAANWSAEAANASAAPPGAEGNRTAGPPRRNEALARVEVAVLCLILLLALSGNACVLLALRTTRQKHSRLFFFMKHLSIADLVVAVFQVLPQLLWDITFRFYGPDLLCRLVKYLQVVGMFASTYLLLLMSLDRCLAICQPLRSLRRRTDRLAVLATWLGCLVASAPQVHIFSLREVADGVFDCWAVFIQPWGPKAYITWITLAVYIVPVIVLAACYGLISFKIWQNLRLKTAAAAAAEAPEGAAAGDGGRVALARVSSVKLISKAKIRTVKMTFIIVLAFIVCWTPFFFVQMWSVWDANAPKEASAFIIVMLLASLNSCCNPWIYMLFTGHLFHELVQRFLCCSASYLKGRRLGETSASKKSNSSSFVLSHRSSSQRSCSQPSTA

Vasopressin V1b receptor = target: T2, Vasopressin V1b receptor (Homo sapiens, UniProt P47901); experiment: Agonist activity at human V1b receptor expressed in CHO cells assessed as calcium mobilization measured after 30 mins by Fluo-4-AM dye based FLIPR assay; format: cell-based
T2 sequence (P47901 whole entry): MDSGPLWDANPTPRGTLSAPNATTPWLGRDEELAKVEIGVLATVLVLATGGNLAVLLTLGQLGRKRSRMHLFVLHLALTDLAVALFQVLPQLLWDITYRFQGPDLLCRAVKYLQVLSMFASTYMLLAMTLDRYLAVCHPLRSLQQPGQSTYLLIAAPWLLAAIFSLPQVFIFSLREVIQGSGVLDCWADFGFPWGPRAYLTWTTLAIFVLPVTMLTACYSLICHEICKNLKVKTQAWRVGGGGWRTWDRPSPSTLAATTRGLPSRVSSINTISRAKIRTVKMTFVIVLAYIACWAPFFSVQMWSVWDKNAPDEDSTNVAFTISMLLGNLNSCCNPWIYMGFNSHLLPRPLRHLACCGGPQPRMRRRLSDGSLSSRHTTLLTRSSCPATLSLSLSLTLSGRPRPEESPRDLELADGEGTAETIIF

Homo sapiens [1] = organism: Homo sapiens; experiment: Selectivity ratio of EC50 for human V1b receptor to EC50 for human OTR
Homo sapiens [2] = organism: Homo sapiens; experiment: Selectivity ratio of EC50 for human V1a receptor to EC50 for human OTR

Chain of Vasopressin V1a receptor (P37288 whole entry): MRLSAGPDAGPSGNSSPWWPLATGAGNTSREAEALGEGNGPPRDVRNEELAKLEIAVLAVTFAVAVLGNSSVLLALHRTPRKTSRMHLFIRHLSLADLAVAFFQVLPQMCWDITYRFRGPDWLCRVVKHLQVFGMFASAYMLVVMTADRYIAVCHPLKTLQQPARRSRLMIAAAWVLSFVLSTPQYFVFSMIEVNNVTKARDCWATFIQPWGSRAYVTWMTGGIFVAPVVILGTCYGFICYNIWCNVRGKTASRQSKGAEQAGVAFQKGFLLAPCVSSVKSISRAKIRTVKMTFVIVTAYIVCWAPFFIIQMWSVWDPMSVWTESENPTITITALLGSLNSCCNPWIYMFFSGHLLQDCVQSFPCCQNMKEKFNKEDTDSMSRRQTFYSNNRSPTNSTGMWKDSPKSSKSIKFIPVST

| SMILES | EC50 (Vasopressin V1a receptor) [nM] | EC50 (Oxytocin receptor) [nM] | EC50 (Vasopressin V1b receptor) [nM] | Ratio EC50 (Homo sapiens [1]) | Ratio EC50 (Homo sapiens [2]) |
| --- | --- | --- | --- | --- | --- |
| CC(C)C[C@H](NC(=O)[C@@H]1CCCN1C(=O)[C@@H]1CSSCCC(=O)N[C@@H](Cc2ccc(O)cc2)C(=O)N[C@@H](C)C(=O)N[C@@H](CCC(N)=O)C(=O)N[C@@H](CC(N)=O)C(=O)N1)C(=O)NCC(N)=O ([Mpa]YAQNCPLG-NH2; disulfide 1-6) | > 100 | 4.4 | > 100 | > 10 | > 10 |
| CC[C@H](C)[C@@H]1NC(=O)[C@H](Cc2ccccc2)NC(=O)CCSSC[C@@H](C(=O)N2CCC[C@H]2C(=O)N[C@@H](CC(C)C)C(=O)NCC(N)=O)NC(=O)[C@H](CC(N)=O)NC(=O)[C@H](CCC(N)=O)NC1=O ([Mpa]FIQNCPLG-NH2; disulfide 1-6) | > 100 | 0.19 | > 100 | > 100 | > 100 |
| CC[C@H](C)[C@@H]1NC(=O)[C@H](Cc2ccc(O)cc2)NC(=O)CCSSC[C@@H](C(=O)N2CCC[C@H]2C(=O)N[C@@H](CC(C)C)C(=O)NCC(N)=O)NC(=O)[C@H](CCC(=O)O)NC(=O)[C@H](CCC(N)=O)NC1=O ([Mpa]YIQECPLG-NH2; disulfide 1-6) | > 100 | 89 | > 100 | > 1 | > 1 |
| CC[C@H](C)[C@@H]1NC(=O)[C@H](Cc2ccc(O)cc2)NC(=O)CCSSC[C@@H](C(=O)N[C@@H](Cc2ccccc2)C(=O)N[C@@H](CC(C)C)C(=O)NCC(N)=O)NC(=O)[C@H](CC(N)=O)NC(=O)[C@H](CCC(N)=O)NC1=O ([Mpa]YIQNCFLG-NH2; disulfide 1-6) | > 100 | 0.12 | > 100 | > 100 | > 100 |
| CC[C@H](C)[C@@H]1NC(=O)[C@H](Cc2ccc(O)cc2)NC(=O)CCCSC[C@@H](C(=O)N2C[C@H](O)C[C@H]2C(=O)N[C@@H](CC(C)C)C(=O)NCC(N)=O)NC(=O)[C@H](CC(N)=O)NC(=O)[C@H](CCC(N)=O)NC1=O (YIQNC[Hyp]LG-NH2; linker N-5 via X1) | > 100 | 0.0055 | > 100 | > 10000 | > 10000 |
| CCCC[C@H](NC(=O)[C@@H]1CCCN1C(=O)[C@@H]1CSSCCC(=O)N[C@@H](Cc2ccc(O)cc2)C(=O)N[C@@H]([C@@H](C)CC)C(=O)N[C@@H](CCC(N)=O)C(=O)N[C@@H](CC(N)=O)C(=O)N1)C(=O)NCC(N)=O | 4.4 | 0.015 | 0.5 | 33 | 290 |
| CC[C@H](C)[C@@H]1NC(=O)[C@H](Cc2ccc(O)cc2)NC(=O)CCSSC[C@@H](C(=O)N2CCC[C@H]2C(=O)N[C@@H](CC(C)C)C(=O)N[C@@H](CC(C)C)C(N)=O)NC(=O)[C@H](CC(N)=O)NC(=O)[C@H](CCC(N)=O)NC1=O ([Mpa]YIQNCPLL-NH2; disulfide 1-6) | > 100 | 1.6 | > 100 | > 10 | > 10 |
| CC[C@H](C)[C@@H]1NC(=O)[C@H](Cc2ccc(O)cc2)NC(=O)CCSSC[C@@H](C(=O)N2CCC[C@H]2C(=O)N[C@@H](CC(C)(C)C)C(=O)NCC(N)=O)NC(=O)[C@H](CC(N)=O)NC(=O)[C@H](CCC(N)=O)NC1=O | > 100 | 0.0086 | > 100 | > 10000 | > 10000 |
| CC[C@H](C)[C@@H]1NC(=O)[C@H](Cc2ccc(O)cc2)NC(=O)CCC(=O)NC[C@@H](C(=O)N2CCC[C@H]2C(=O)N[C@@H](CC(C)C)C(=O)NCC(N)=O)NC(=O)[C@H](CC(N)=O)NC(=O)[C@H](CCC(N)=O)NC1=O (YIQN[Dap]PLG-NH2; linker N-5 via Suc) | > 100 | 0.12 | > 100 | > 100 | > 100 |
| CC[C@H](C)[C@@H]1NC(=O)[C@H](Cc2ccc(O)cc2)NC(=O)CCCSC[C@@H](C(=O)N2CCC[C@H]2C(=O)N[C@@H](CC(C)C)C(=O)NCC(N)=O)NC(=O)[C@H](CC(N)=O)NC(=O)[C@H](CCC(N)=O)NC1=O (YIQNCPLG-NH2; linker N-5 via X1) | 45 | 0.0067 | 6.5 | 970 | 6700 |
| CC[C@H](C)[C@@H]1NC(=O)[C@H](CCC(=O)O)NC(=O)CCSSC[C@@H](C(=O)N2CCC[C@H]2C(=O)N[C@@H](CC(C)C)C(=O)NCC(N)=O)NC(=O)[C@H](CC(N)=O)NC(=O)[C@H](CCC(N)=O)NC1=O ([Mpa]EIQNCPLG-NH2; disulfide 1-6) | > 100 | > 100 | > 100 | – | – |
| CC[C@H](C)[C@@H]1NC(=O)[C@H](CCCNC(=N)N)NC(=O)CCSSC[C@@H](C(=O)N2CCC[C@H]2C(=O)N[C@@H](CC(C)C)C(=O)NCC(N)=O)NC(=O)[C@H](CC(N)=O)NC(=O)[C@H](CCC(N)=O)NC1=O ([Mpa]RIQNCPLG-NH2; disulfide 1-6) | > 100 | > 100 | > 100 | – | – |
| CC[C@H](C)[C@@H]1NC(=O)[C@H](Cc2ccc(O)cc2)NC(=O)CCSSC[C@@H](C(=O)N2CCC[C@H]2C(=O)N[C@@H](CC(C)C)C(=O)NCC(N)=O)NC(=O)[C@H](CCCNC(=N)N)NC(=O)[C@H](CCC(N)=O)NC1=O ([Mpa]YIQRCPLG-NH2; disulfide 1-6) | > 100 | > 100 | > 100 | – | – |
| CC[C@H](C)[C@@H]1NC(=O)[C@H](Cc2ccc(O)cc2)NC(=O)CCSSC[C@@H](C(=O)N2CCC[C@H]2C(=O)N[C@@H](CC(C)C)C(=O)NCC(N)=O)NC(=O)[C@H](CC(N)=O)NC(=O)[C@H](CCC(N)=O)NC1=O | – | – | 3.2 | – | – |
| CC[C@H](C)[C@@H]1NC(=O)[C@H](C)NC(=O)CCSSC[C@@H](C(=O)N2CCC[C@H]2C(=O)N[C@@H](CC(C)C)C(=O)NCC(N)=O)NC(=O)[C@H](CC(N)=O)NC(=O)[C@H](CCC(N)=O)NC1=O ([Mpa]AIQNCPLG-NH2; disulfide 1-6) | > 100 | > 100 | > 100 | – | – |
| CC[C@H](C)[C@@H]1NC(=O)[C@H](Cc2ccc(O)cc2)NC(=O)CCSSC[C@@H](C(=O)N2CCC[C@H]2C(=O)N[C@@H](CC(C)C)C(=O)NCC(N)=O)NC(=O)[C@H](Cc2ccccc2)NC(=O)[C@H](CCC(N)=O)NC1=O ([Mpa]YIQFCPLG-NH2; disulfide 1-6) | > 100 | > 100 | > 100 | – | – |
| CC(C)C[C@H](NC(=O)[C@@H]1CCCN1C(=O)[C@@H]1CSSCCC(=O)N[C@@H](Cc2ccc(O)cc2)C(=O)N[C@@H](CCCNC(=N)N)C(=O)N[C@@H](CCC(N)=O)C(=O)N[C@@H](CC(N)=O)C(=O)N1)C(=O)NCC(N)=O ([Mpa]YRQNCPLG-NH2; disulfide 1-6) | > 100 | > 100 | > 100 | – | – |
| CC[C@H](C)[C@@H]1NC(=O)[C@H](Cc2ccc(O)cc2)NC(=O)CCSSC[C@@H](C(=O)N2CCC[C@H]2C(=O)N[C@@H](CC(C)C)C(=O)NCC(N)=O)NC(=O)[C@H](CC(C)C)NC(=O)[C@H](CCC(N)=O)NC1=O ([Mpa]YIQLCPLG-NH2; disulfide 1-6) | > 100 | > 100 | > 100 | – | – |
| CC(C)C[C@H](NC(=O)[C@@H]1CCCN1C(=O)[C@@H]1CSSCCC(=O)N[C@@H](Cc2ccc(O)cc2)C(=O)N[C@@H](CCC(=O)O)C(=O)N[C@@H](CCC(N)=O)C(=O)N[C@@H](CC(N)=O)C(=O)N1)C(=O)NCC(N)=O ([Mpa]YEQNCPLG-NH2; disulfide 1-6) | > 100 | > 100 | > 100 | – | – |
| CC[C@H](C)[C@@H]1NC(=O)[C@H](CO)NC(=O)CCSSC[C@@H](C(=O)N2CCC[C@H]2C(=O)N[C@@H](CC(C)C)C(=O)NCC(N)=O)NC(=O)[C@H](CC(N)=O)NC(=O)[C@H](CCC(N)=O)NC1=O ([Mpa]SIQNCPLG-NH2; disulfide 1-6) | > 100 | > 100 | > 100 | – | – |
